This passage reports DC50 results from patent EP4748840A1, “IMIDAZO[1,2-A]PYRIDINE TYPE IRAK DEGRADATION AGENT AND USE THEREOF” (TAINUORUI (TIANJIN) BIOTECHNOLOGY CO., LTD, priority 2023, dated 2025).

Molecules are shown by their SMILES.

This experiment deals with T1, IRAK4 (Homo sapiens, UniProt Q9NWZ3).
T1 construct: expressed in transfected cells; host or cells: THP1 (THP1-HIBiT-IRAK4 engineered line)
T1 sequence (Q9NWZ3 1-460): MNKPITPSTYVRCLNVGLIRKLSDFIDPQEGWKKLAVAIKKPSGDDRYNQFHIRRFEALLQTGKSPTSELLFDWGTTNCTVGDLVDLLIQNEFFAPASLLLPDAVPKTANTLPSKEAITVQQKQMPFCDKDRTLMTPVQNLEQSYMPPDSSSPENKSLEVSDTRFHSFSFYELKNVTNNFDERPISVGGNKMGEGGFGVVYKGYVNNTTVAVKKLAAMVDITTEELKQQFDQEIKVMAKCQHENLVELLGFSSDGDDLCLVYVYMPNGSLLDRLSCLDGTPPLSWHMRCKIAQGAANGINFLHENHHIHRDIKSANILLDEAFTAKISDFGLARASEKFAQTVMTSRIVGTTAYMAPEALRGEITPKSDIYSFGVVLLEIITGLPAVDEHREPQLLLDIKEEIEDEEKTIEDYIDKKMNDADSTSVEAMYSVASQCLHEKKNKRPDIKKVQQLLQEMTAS
Briefly: HiBiT-based intracellular degradation assay of THP1-HIBiT-IRAK4 cells. It is filed as cell-based. The settings on record: half-maximal degradation concentration of IRAK4 protein, 24 h incubation. On the procedure:
HiBiT-based intracellular degradation assay of THP1-HIBiT-IRAK4 cells
THP1-HIBiT-IRAK4 cells were cultured in RPMI 1640 medium supplemented with 10% fetal bovine serum (FBS) and 1% penicillin-streptomycin (PS) (37°C and 5% CO2). The THP1-HIBiT-IRAK4 cells were inoculated in a 384-well plate at 5000 cells/40 µL/well. Compound solutions with different concentrations were added at 40 nL/well and incubated for 24 h at 37°C in 5% CO2. HiBiT lysis detection reagents were added to the wells, the plate was incubated for 30 min at room temperature, and luminescence values were read on Envision. [formula]
The DC50 (half-maximal degradation concentration) of each compound was obtained using XLfit software and the following nonlinear fitting equation: Y = bottom + (top−bottom)/(1+10^(∧)((LogDC50−X)×Hillslope)). [formula]
X denotes a log value of the compound concentration.
Y denotes the degradation rate.
Table 1 lists the results of DC50 values of IRAK4 protein degradation. […]

By DC50 is commonly meant the midpoint of the concentration-degradation curve. The compound `CC(C)(O)c1cc2nc(C3CCN(CCOCCNc4cccc5c4C(=O)N(C4CCC(=O)NC4=O)C5=O)CC3)cn2cc1NC(=O)c1cccc(C(F)(F)F)n1` (stereo not shown) [Comparative Example 1, N-(2-(1-(2-(2-((2-(2,6-dioxopiperidin-3-yl)-1,3-dioxoisoindolin-4-yl)amino)ethoxy)ethyl)piperidin-4-yl)-7-(2-hydroxypropan-2-yl)imidazo[1,2-a]pyridin-6-yl)-6-(trifluoromethyl)pyridine-2-carboxamide, reference compound] had a half-maximal degradation concentration (DC50) above 10000 nM.
As for `CC(C)(O)c1cc2nc(C3CCN(CCCC(=O)N4CCN(c5ccc6c(c5)C(=O)N(C5CCC(=O)NC5=O)C6=O)CC4)CC3)cn2cc1NC(=O)c1cccc(C(F)(F)F)n1` (stereo not shown) [Example 4, N-(2-(1-(4-(4-(2-(2,6-dioxopiperidin-3-yl)-1,3-dioxoisoindolin-5-yl)piperazin-1-yl)-4-oxobutyl)piperidin-4-yl)-7-(2-hydroxypropan-2-yl)imidazo[1,2-a]pyridin-6-yl)-6-(trifluoromethyl)pyridine-2-carboxamide], the DC50 came to 5.05 nM. In other words, the single-digit nanomolar range.
The value for `CC(C)(O)c1cc2nc(C3CCN(CCN4CCN(c5cc6c(cc5F)C(=O)N(C5CCC(=O)NC5=O)C6=O)CC4)CC3)cn2cc1NC(=O)c1cccc(C(F)(F)F)n1` (stereo not shown) [Example 22, N-(2-(1-(2-(4-(2-(2,6-dioxopiperidin-3-yl)-6-fluoro-1,3-dioxoisoindolin-5-yl)piperazin-1-yl)ethyl)piperidin-4-yl)-7-(2-hydroxypropan-2-yl)imidazo[1,2-a]pyridin-6-yl)-6-(trifluoromethyl)pyridine-2-carboxamide] was 4.76 nM.
`CC(C)(O)c1cc2nc(C3CCN(CCC(=O)N4CCN(c5ccc6c(c5)C(=O)N(C5CCC(=O)NC5=O)C6=O)CC4)CC3)cn2cc1NC(=O)c1cccc(C(F)(F)F)n1` (stereo not shown) [Example 3, N-(2-(1-(3-(4-(2-(2,6-dioxopiperidin-3-yl)-1,3-dioxoisoindolin-5-yl)piperazin-1-yl)-3-oxopropyl)piperidin-4-yl)-7-(2-hydroxypropan-2-yl)imidazo[1,2-a]pyridin-6-yl)-6-(trifluoromethyl)pyridine-2-carboxamide] returned a DC50 of 13.9 nM.
The value for `CC(C)(O)c1cc2nc(C3CCN(CCN4CCN(c5ccc6c(c5)C(=O)N(C5CCC(=O)NC5=O)C6)CC4)CC3)cn2cc1NC(=O)c1cccc(C(F)(F)F)n1` (stereo not shown) [Example 13, N-(2-(1-(2-(4-(2-(2,6-dioxopiperidin-3-yl)-3-oxoisoindolin-5-yl)piperazin-1-yl)ethyl)piperidin-4-yl)-7-(2-hydroxypropan-2-yl)imidazo[1,2-a]pyridin-6-yl)-6-(trifluoromethyl)pyridine-2-carboxamide] was 0.64 nM; that for `CC(C)(O)c1cc2nc(C3CCN(CC4CCN(c5cc6c(cc5F)C(=O)N([C@H]5CCC(=O)NC5=O)C6=O)CC4)CC3)cn2cc1NC(=O)c1cccc(C(F)(F)F)n1` [Example 26, (S)-N-(2-(1-((1-(2-(2,6-dioxopiperidin-3-yl)-6-fluoro-1,3-dioxoisoindolin-5-yl)piperidin-4-yl)methyl)piperidin-4-yl)-7-(2-hydroxypropan-2-yl)imidazo[1,2-a]pyridin-6-yl)-6-(trifluoromethyl)pyridine-2-carboxamide] was 2.15 nM.
To `CC(C)(O)c1cc2nc(C3CCN(CCN4CC5(CCN(c6ccc7c(c6)C(=O)N(C6CCC(=O)NC6=O)C7=O)CC5)C4)CC3)cn2cc1NC(=O)c1cccc(C(F)(F)F)n1` (stereo not shown) [Example 17, N-(2-(1-(2-(7-(2-(2,6-dioxopiperidin-3-yl)-1,3-dioxoisoindolin-5-yl)-2,7-diazaspiro[3.5]nonan-2-yl)ethyl)piperidin-4-yl)-7-(2-hydroxypropan-2-yl)imidazo[1,2-a]pyridin-6-yl)-6-(trifluoromethyl)pyridine-2-carboxamide] belongs 4.86 nM; to `COc1cc2nc(C3CCN(CCN4CCN(c5ccc6c(c5)C(=O)N(C5CCC(=O)NC5=O)C6=O)CC4)CC3)cn2cc1NC(=O)c1cccc(C(F)(F)F)n1` (stereo not shown) [Example 11, N-(2-(1-(2-(4-(2-(2,6-dioxopiperidin-3-yl)-1,3-dioxoisoindolin-5-yl)piperazin-1-yl)ethyl)piperidin-4-yl)-7-methoxyimidazo[1,2-a]pyridin-6-yl)-6-(trifluoromethyl)pyridine-2-carboxamide], 2.23 nM.
`CC(C)(O)c1cc2nc(C3CCN(CC(=O)N4CC5(CCN(c6ccc7c(c6)C(=O)N(C6CCC(=O)NC6=O)C7=O)CC5)C4)CC3)cn2cc1NC(=O)c1cccc(C(F)(F)F)n1` (stereo not shown) [Example 6, N-(2-(1-(2-(7-(2-(2,6-dioxopiperidin-3-yl)-1,3-dioxoisoindolin-5-yl)-2,7-diazaspiro[3.5]nonan-2-yl)-2-oxoethyl)piperidin-4-yl)-7-(2-hydroxypropan-2-yl)imidazo[1,2-a]pyridin-6-yl)-6-(trifluoromethyl)pyridine-2-carboxamide] returned a DC50 of 7.83 nM. Against the preceding compound, the DC50 is about 3.5-fold higher.
As for `CC(C)(O)c1cc2nc(C3CCN(C4CN(C5CCN(c6ccc7c(c6)C(=O)N(C6CCC(=O)NC6=O)C7=O)CC5)C4)CC3)cn2cc1NC(=O)c1cccc(C(F)(F)F)n1` (stereo not shown) [Example 20, N-(2-(1-(1-(1-(2-(2,6-dioxopiperidin-3-yl)-1,3-dioxoisoindolin-5-yl)piperidin-4-yl)azetidin-3-yl)piperidin-4-yl)-7-(2-hydroxypropan-2-yl)imidazo[1,2-a]pyridin-6-yl)-6-(trifluoromethyl)pyridine-2-carboxamide], it took 1.35 nM to reach half-maximal degradation (DC50).
`COc1cc2nc(C3CCN(CC4CCN(c5ccc6c(c5)C(=O)N(C5CCC(=O)NC5=O)C6=O)CC4)CC3)cn2cc1NC(=O)c1cccc(C(F)(F)F)n1` (stereo not shown) [Example 8, N-(2-(1-((1-(2-(2,6-dioxopiperidin-3-yl)-1,3-dioxoisoindolin-5-yl)piperidin-4-yl)methyl)piperidin-4-yl)-7-methoxyimidazo[1,2-a]pyridin-6-yl)-6-(trifluoromethyl)pyridine-2-carboxamide]: the 50% degradation concentration (DC50) was found to be 16.3 nM. Compared with the last compound, the DC50 is about 12-fold higher.
The value for `CC(C)(O)c1cc2nc(C3CCN(CCN4CCN(c5ccc6c(c5)CN(C5CCC(=O)NC5=O)C6=O)CC4)CC3)cn2cc1NC(=O)c1cccc(C(F)(F)F)n1` (stereo not shown) [Example 10, N-(2-(1-(2-(4-(2-(2,6-dioxopiperidin-3-yl)-1-oxoisoindolin-5-yl)piperazin-1-yl)ethyl)piperidin-4-yl)-7-(2-hydroxypropan-2-yl)imidazo[1,2-a]pyridin-6-yl)-6-(trifluoromethyl)pyridine-2-carboxamide] was 0.51 nM.
For `COc1cc2nc(C3CCN(CCN4CCN(c5ccc6c(c5)C(=O)N(C5CCC(=O)NC5=O)C6)CC4)CC3)cn2cc1NC(=O)c1cccc(C(F)(F)F)n1` (stereo not shown) [Example 14, N-(2-(1-(2-(4-(2-(2,6-dioxopiperidin-3-yl)-3-oxoisoindolin-5-yl)piperazin-1-yl)ethyl)piperidin-4-yl)-7-methoxyimidazo[1,2-a]pyridin-6-yl)-6-(trifluoromethyl)pyridine-2-carboxamide], it took 1.33 nM to reach half-maximal degradation (DC50).
`CC(C)(O)c1cc2nc(C3CCN(CCN4CCC5(CC4)CN(c4ccc6c(c4)C(=O)N(C4CCC(=O)NC4=O)C6=O)C5)CC3)cn2cc1NC(=O)c1cccc(C(F)(F)F)n1` (stereo not shown) [Example 16, N-(2-(1-(2-(2-(2-(2,6-dioxopiperidin-3-yl)-1,3-dioxoisoindolin-5-yl)-2,7-diazaspiro[3.5]nonan-7-yl)ethyl)piperidin-4-yl)-7-(2-hydroxypropan-2-yl)imidazo[1,2-a]pyridin-6-yl)-6-(trifluoromethyl)pyridine-2-carboxamide] showed a DC50 of 3.33 nM. This DC50 is about 2.5-fold higher than that of the compound before.
For the compound `CC(C)(O)c1cc2nc(C3CCN(CCCN4CCN(c5ccc6c(c5)C(=O)N(C5CCC(=O)NC5=O)C6=O)CC4)CC3)cn2cc1NC(=O)c1cccc(C(F)(F)F)n1` (stereo not shown) [Example 19, N-(2-(1-(3-(4-(2-(2,6-dioxopiperidin-3-yl)-1,3-dioxoisoindolin-5-yl)piperazin-1-yl)propyl)piperidin-4-yl)-7-(2-hydroxypropan-2-yl)imidazo[1,2-a]pyridin-6-yl)-6-(trifluoromethyl)pyridine-2-carboxamide], the DC50 was 1.95 nM. Against the preceding compound, the DC50 is about 1.7-fold lower.
Consider `CC(C)(O)c1cc2nc(C3CCN(CC4CCN(c5cc6c(cc5F)C(=O)N([C@@H]5CCC(=O)NC5=O)C6=O)CC4)CC3)cn2cc1NC(=O)c1cccc(C(F)(F)F)n1` [Example 25, (R)-N-(2-(1-((1-(2-(2,6-dioxopiperidin-3-yl)-6-fluoro-1,3-dioxoisoindolin-5-yl)piperidin-4-yl)methyl)piperidin-4-yl)-7-(2-hydroxypropan-2-yl)imidazo[1,2-a]pyridin-6-yl)-6-(trifluoromethyl)pyridine-2-carboxamide], for which the half-maximal degradation concentration (DC50) came to 12.8 nM.
